Source: patent publication US20050222078A1, “Use of pyrimidine nucleotides for the treatment of affections of the peripheral nervous system” (priority 2002, published 2005)

What was measured:
[1] = system: traumatically affected peripheral nerves; conditions: Wistar rats, B. Wattig et al. 1991; cited from earlier work
[2] = system: patients with lumbago; test: Clinical study of UMP versus placebo in patients with lumbago; type: in vivo
Method: In the following the effectivity of pyrimidine nucleotides for the treatment of affections of the peripheral nervous system as well as for the stimulation of the regeneration of nerves is described by example of uridine-5′-monophosphate (UMP) by example of the indication lumbago. 80 female as well as male patients, aged between 20 and 63 years, were separated randomly into two groups, one was treated with UMP and the other with placebo. The treatment ranged over four consecutive days, whereas the treatment could be terminated ahead of schedule as soon as the symptoms were ameliorating in a way, that a further treatment was needless. Applied was once per day into a vein of the arm an injection solution of 19.349 mg UMP (this corresponds to a mass of 12.834 mg uridine) in 250 ml of physiological sodium chloride solution over a time period of 30 minutes. The comparison group received as placebo only the 250 ml of physiological sodium chloride solution without an active agent. For this clinical study only patients were chosen with a pain intensity of at least 40 mm on the VAS scale (VAS: visual analogue scale). The pain intensity is given on the linear VAS scale in the unit “mm” and was determined by prompting the patients to mark on the linear VAS scale the point, which corresponded to their respective pain intensity. Thereby a non sensible pain was given with the value 0 mm and the possibly maximum pain with the value 100 mm. The pain intensity of the patients was continuously checked, whereas the patients also had to indicate the respective duration of the single pain periods. Table 1 proves, that already after a short time period after the initial injection the pain intensity strongly decreases in the resting and moving state in the case of the UMP patient group. The finger-floor distance represents a measure for the mobility, i.e. for the grade of capability to bend the back, and is given in the unit “cm”, whereas the distance between the finger tip in the case of outstretched arms and the curvature in the case of maximal possible bending of the back was measured.

[3] = decrease in the UMP patient group
[4] = decrease of pain in the UMP patient group, VAS
[5] = difference of decrease, UMP versus placebo group

Compound	Filament area of nerve filaments (myelin and axon areas) [1]	Presence of myogelosis ([2]; UMP patient group, 24 h after inj., base line 100%) [%]	Pain during resting state ([2]; VAS scale, average of UMP patient group, 24 h after inj., 19.349 mg UMP i.v. once per day, base line 60.3) [mm]	Pain during movement ([2]; VAS scale, average of UMP patient group, 24 h after inj., base line 76.1) [mm]	Daily duration of pain ([2]; average of UMP patient group, 24 h after inj., base line 15.8) [h]	Finger-floor distance ([2]; average of UMP patient group, 24 h after inj., base line 43.8) [cm]	Δ UMP, Daily duration of pain [2, 3] [h]	Δ UMP, Finger-floor distance [2, 3] [cm]	Δ UMP, Pain during movement [2, 4] [mm]	Δ UMP, Pain during resting state [2, 4] [mm]	Δ UMP − Δ Placebo, Daily duration of pain [2, 5] [h]	Δ UMP − Δ Placebo, Finger-floor distance [2, 5] [cm]	Δ UMP − Δ Placebo, Pain during movement [2, 5] [mm]	Δ UMP − Δ Placebo, Pain during resting state [2, 5] [mm]	Absolute values of test parameters (pain, daily duration of pain, finger-floor distance) versus placebo group ([2]; during the further three days)	Decrease in pain compared to placebo patients ([2]; within the initial 24 h after the first injection)
Nc1ccn([C@@H]2O[C@H](COP(=O)(O)O)[C@@H](O)[C@H]2O)c(=O)n1 [CMP, cytidine-5′-monophosphate]	no comparable results															
O=c1ccn([C@@H]2O[C@H](COP(=O)(O)O)[C@@H](O)[C@H]2O)c(=O)[nH]1 [UMP, uridine-5′-monophosphate]	no comparable results	90	46.2	56.9	10.7	32.5	-4.3	−10.1	−17.9	−12.8	-1.4	−2.7	−6.8	−3.4	always below the corresponding absolute values for the placebo group	clear decrease in pain
